Earlier results as cited in paper PMC11539907, “Cytotoxicity of norstictic acid derivatives, a depsidone from Ramalina anceps Nyl” (Turkish Journal of Chemistry, 2024).
Where two headings read alike, the source gives them in different places.

Assays:
[1] = test system: 786-0 (kidney carcinoma) cells; design: method as in Bogo et al. (2020); conditions: ref Bogo et al. (2020), cited from earlier work
[2] = test system: MCF7 (breast carcinoma) cells; design: method as in Bogo et al. (2020); conditions: ref Bogo et al. (2020), cited from earlier work
[3] = test system: HT-29 (colon carcinoma) cells; design: method as in Bogo et al. (2020); conditions: ref Bogo et al. (2020), cited from earlier work
[4] = test system: PC-03 (prostate carcinoma) cells; design: method as in Bogo et al. (2020); conditions: ref Bogo et al. (2020), cited from earlier work
[5] = test system: HEP2 (laryngeal carcinoma) cells; design: method as in Bogo et al. (2020); conditions: ref Bogo et al. (2020), cited from earlier work
[6] = test system: B16-F10 (murine melanoma) cells; design: method as in Brandão et al. (2013); conditions: ref Brandão et al. (2013), cited from earlier work
[7] = test system: UACC-62 (human melanoma) cells; conditions: cited from earlier work
[8] = test system: NIH/3T3 (mouse embryonic fibroblast) cells; design: method as in Bogo et al. (2020); conditions: NIH/3T3 normal cells; ref Bogo et al. (2020); read-out: growth inhibition (GI50); cited from earlier work
[9] = test system: tested tumor cells (786-0, MCF7, HT-29, PC-03, HEP2, B16-F10, UACC-62); conditions: cited from earlier work; for cytotoxic activity in words: panel of tumor cells
[10] = test system: TNBC MDA-MB-231 cells; design: method as in PMID 26744260; conditions: cited from earlier work
[11] = test system: MCF-10A mammary epithelial cells; design: method as in PMID 26744260; conditions: cited from earlier work
[12] = test system: MDA-MB-231/GFP cells implanted into athymic female nude mice; design: method as in PMID 26744260; conditions: cited from earlier work

Cc1cc(O)c(C=O)c2c1C(=O)Oc1c(C)c(O)c3c(c1O2)C(O)OC3=O (stereo not shown) [compound 1, Norstictic acid]
selectivity index (SI) ([1]; 3T3 vs 786-0, from literature GI50 values): 0.9
GI50 ([1]; 786-0 cells, read-out: growth inhibition (GI50)): 759 µM
selectivity index (SI) ([2]; 3T3 vs MCF7): 4.3
GI50 ([2]; MCF7 cells, read-out: growth inhibition (GI50)): 162 µM
selectivity index (SI) ([3]; 3T3 vs HT-29, from literature GI50 values): 0.7
GI50 ([3]; HT-29 cells, read-out: growth inhibition (GI50)): 916 µM
selectivity index (SI) ([4]; 3T3 vs PC-03 (PC-3)): 3.6
GI50 ([4]; PC-03 cells, read-out: growth inhibition (GI50)): 191 µM
selectivity index (SI) ([5]; 3T3 vs HEP2): 4.4
GI50 ([5]; HEP2 cells, read-out: growth inhibition (GI50)): 157 µM
selectivity index (SI) ([6]; 3T3 vs B16-F10): >4.1
GI50 ([6]; B16-F10 cells, read-out: growth inhibition (GI50)): 168 µM
selectivity index (SI) ([7]; 3T3 vs UACC-62, ref Brandão et al. (2013)): >7.6
GI50 ([7]; UACC-62 cells, ref Brandão et al. (2013), read-out: growth inhibition (GI50)): 88.4 µM
growth inhibition effect (GI50) ([7]; UACC-62 human melanoma cells): 32.9 µg/mL
GI50 [8]: 696 µM
GI50 ([9]; MCF7, HEP2, PC-03, B16-F10, and UACC-62 cells, ref Bogo et al. (2020), Brandão et al. (2013), read-out: GI50, range): 88.4 to 191 µM
cytotoxic activity in words ([9]; listed as Norstictic acid): poor activity
cytotoxic activity in words ([9]; listed as norstictic acid): low cytotoxic activity
proliferation, migration, and invasion in words [10]: significantly suppressed the proliferation, migration, and invasion
toxicity to nontumorogenic cells in words [11]: minimal toxicity
in vivo effect on tumor growth in words [12]: tolerability and significant inhibitory effect
